Patent US12226405B2, “Compounds and compositions for inhibiting the activity of HIF2-alpha and their methods of use” (Novartis AG, priority 2020, dated 2025)

Tests used:
[1] = tested on: HIF2α-dependent transcription in 786-O-HRE-Luc cells; test: In vitro cellular hypoxia response element (HRE) reporter gene assay (RGA) for HIF2α; assay type: cell-based, human; details: Homo sapiens, 24 hours incubation
Procedure, shortened: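 Renal carcinoma cells carrying a 4×HRE-driven PEST-destabilised firefly luciferase were treated a day after seeding with eleven 2-fold compound dilutions (0.1% DMSO) for 24 h at 37° C. BrightGlo luminescence, background-subtracted and expressed as % of DMSO control, was fitted four-parametrically for IC50.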

[2] = target: HIF2α PAS-B domain (236-350, biotinylated on the N-terminus) (Homo sapiens (Human), UniProt Q99814)
Chain of HIF2α PAS-B domain (236-350, biotinylated on the N-terminus) (Q99814 236-350): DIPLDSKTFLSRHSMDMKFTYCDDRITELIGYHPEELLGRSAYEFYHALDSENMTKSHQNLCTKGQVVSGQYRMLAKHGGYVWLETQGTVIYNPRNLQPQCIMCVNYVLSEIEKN
Method: The assay buffer contained 50 mM Tris-HCl pH7 (Sigma), 20 mM NaCl (Fluka), 0.02% BSA (Sigma), 0.005% Triton X-100 (Pierce) and 1 mM DTT (Fluka). After a 30 min incubation period, 5 μL Streptavidin PVT SPA Beads (Perkin Elmer) at 1.2 mg/mL, diluted in the buffer, were added.

[3] = tested on: HIF2α-regulated expression of the endogenous target gene hEGLN3 in 786-O cells; test: Cellular iScript assay for HIF2α (quantitative RT-PCR of hEGLN3); assay type: cell-based, human; details: Homo sapiens, 786-0, 48 hours incubation
Procedure, shortened: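 786-O cells were exposed to eleven 2-fold compound dilutions for 48 h at 37° C. Lysates underwent one-step TaqMan qRT-PCR for hEGLN3 with beta-actin as reference; 2^(−ΔΔCt) versus DMSO, as % of control, was fit with a four-parameter model to give IC50.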

What does the source list for FC(F)(F)C1=CN2C[C@@]3(CCOc4cc(C(F)(F)F)ccc43)N=C2C(Cl)=C1 [Example 53, (S)-8′-chloro-6′,7-bis(trifluoromethyl)-3′H-spiro[chroman-4,2′-imidazo[1,2-a]pyridine]]?
IC50 [1]: 839 nM; IC50 [2]: 14 nM; IC50 [3]: 184 nM

Which IC50 [1] does the source give for Fc1c(OC(F)F)ccc2c1OCC[C@@]21CN2C=C(C(F)(F)F)C=C(OC(F)F)C2=N1 [Example 54, (S)-7,8′-bis(difluoromethoxy)-8-fluoro-6′-(trifluoromethyl)-3′ H-spiro[chroman-4,2′-imidazo[1,2-a]pyridine]] here?
The IC50 was 317 nM.

And the IC50 [2]?
The IC50 was 33 nM.

And the IC50 [3]?
The IC50 was 85 nM.

Which results are given for FC(F)OC1=CC(C(F)(F)F)=CN2C[C@@]3(CCOc4c(C(F)F)cccc43)N=C12 [Example 55, (S)-8′-(difluoromethoxy)-8-(difluoromethyl)-6′-(trifluoromethyl)-3′H-spiro[chroman-4,2′-imidazo[1,2-a]pyridine]]?
IC50 [1]: 7650 nM; IC50 [2]: 9 nM; IC50 [3]: 115 nM

FC(F)OC1=CC(C(F)(F)F)=CN2C[C@@]3(CCOc4c3ccnc4Cl)N=C12 [Example 56, (S)-8′-chloro-8-(difluoromethoxy)-6-(trifluoromethyl)-2′,3′-dihydro-3H-spiro[imidazo[1,2-a]pyridine-2,4′-pyrano[2,3-c]pyridine]] was tested. Which IC50 [1] did it give?
The IC50 was 6660 nM.

And the IC50 [2]?
Its IC50 is 13 nM.

What about the IC50 [3] of the same molecule?
Its IC50 is 164 nM.

How did the IC50 [1] turn out when Fc1c(Br)ccc2c1OC[C@H](F)[C@@]21CN2C=C(C(F)(F)F)C=C(OC(F)F)C2=N1 [Example 57, (2′S,3R)-7-bromo-8′-(difluoromethoxy)-3,8-difluoro-6′-(trifluoromethyl)-3′H-spiro[chroman-4,2′-imidazo[1,2-a]pyridine]] was run?
Its IC50 is 196 nM.

What about the IC50 [2] of the same molecule?
Its IC50 is 12 nM.

What about the IC50 [3] of the same molecule?
Its IC50 is 62 nM.

With Fc1c(Br)ccc2c1OC[C@@H](F)[C@@]21CN2C=C(C(F)(F)F)C=C(OC(F)F)C2=N1 [Example 58, (2′S,3S)-7-bromo-8′-(difluoromethoxy)-3,8-difluoro-6′-(trifluoromethyl)-3′H-spiro[chroman-4,2′-imidazo[1,2-a]pyridine]] as the molecule, how does the IC50 [1] read?
Its IC50 is 183 nM.

What about the IC50 [2] of the same molecule?
Its IC50 is 8 nM.

What about the IC50 [3] of the same molecule?
The IC50 was 173 nM.

What does the source list for FC(F)OC1=CC(C(F)(F)F)=CN2C[C@@]3(N=C12)c1ccc(Br)cc1OC[C@@H]3F [Example 59, (2′S,3R)-7-bromo-8′-(difluoromethoxy)-3-fluoro-6′-(trifluoromethyl)-3′H-spiro[chroman-4,2′-imidazo[1,2-a]pyridine]]?
IC50 [1]: 73 nM; IC50 [2]: 12 nM; IC50 [3]: 55 nM

With FC(F)OC1=CC(C(F)(F)F)=CN2C[C@@]3(N=C12)c1ccc(I)cc1OC[C@@H]3F [Example 60, (2′S,3R)-8′-(difluoromethoxy)-3-fluoro-7-iodo-6′-(trifluoromethyl)-3′H-spiro[chroman-4,2′-imidazo[1,2-a]pyridine]] as the molecule, how does the IC50 [1] read?
The IC50 was 65 nM.

And the IC50 [2]?
The IC50 was 6 nM.

And the IC50 [3]?
The IC50 was 27 nM.

What does the source list for FC(F)OC1=CC(C(F)(F)F)=CN2C[C@@]3(N=C12)c1ccc(C(F)(F)F)cc1OC[C@@H]3F [Example 61, (2′S,3R)-8′-(difluoromethoxy)-3-fluoro-6′,7-bis(trifluoromethyl)-3′H-spiro[chroman-4,2′-imidazo[1,2-a]pyridine]]?
IC50 [1]: 143 nM; IC50 [2]: 17 nM; IC50 [3]: 51 nM

For Fc1cccc2c1OC[C@H](F)[C@@]21CN2C=C(C(F)(F)F)C=C(OC(F)F)C2=N1 [Example 62, (2′S,3R)-8′-(difluoromethoxy)-3,8-difluoro-6′-(trifluoromethyl)-3′H-spiro[chroman-4,2′-imidazo[1,2-a]pyridine]], which IC50 [1] is on record?
The IC50 was 484 nM.

And the IC50 [2]?
The IC50 was 13 nM.

What about the IC50 [3] of the same molecule?
The IC50 was 102 nM.

With Fc1cccc2c1COC[C@@]21CN2C=C(C(F)(F)F)C=C(OC(F)F)C2=N1 [Example 63, (S)-8-(difluoromethoxy)-8′-fluoro-6-(trifluoromethyl)-3H-spiro[imidazo[1,2-a]pyridine-2,4′-isochroman]] as the molecule, how does the IC50 [1] read?
Its IC50 is 465 nM.

What about the IC50 [2] of the same molecule?
Its IC50 is 11 nM.

What about the IC50 [3] of the same molecule?
Its IC50 is 197 nM.

Which IC50 [1] does the source give for N#CC1=CN2C[C@@]3(CCSc4c3ccc(Cl)c4F)N=C2C(OC(F)F)=C1 [Example 64, (S)-7′-chloro-8-(difluoromethoxy)-8′-fluoro-3H-spiro[imidazo[1,2-a]pyridine-2,4′-thiochroman]-6-carbonitrile] here?
The IC50 was 236 nM.

What about the IC50 [2] of the same molecule?
Its IC50 is 10 nM.

What about the IC50 [3] of the same molecule?
The IC50 was 51 nM.

With Fc1cccc2c1SCC[C@@]21CN2C=C(C(F)(F)F)C=C(OC(F)F)C2=N1 [Example 65, (S)-8-(difluoromethoxy)-8′-fluoro-6-(trifluoromethyl)-3H-spiro[imidazo[1,2-a]pyridine-2,4′-thiochroman]] as the molecule, how does the IC50 [1] read?
Its IC50 is 114 nM.

And the IC50 [2]?
Its IC50 is ≤ 3 nM.

What about the IC50 [3] of the same molecule?
Its IC50 is 30 nM.

N#CC1=CN2C[C@@]3(CCSc4c(F)cccc43)N=C2C(OC(F)F)=C1 [Example 66, (S)-8-(difluoromethoxy)-8′-fluoro-3H-spiro[imidazo[1,2-a]pyridine-2,4′-thiochroman]-6-carbonitrile] was tested. Which IC50 [1] did it give?
The IC50 was 385 nM.

What about the IC50 [2] of the same molecule?
The IC50 was ≤ 8 nM.

What about the IC50 [3] of the same molecule?
Its IC50 is 47 nM.

Which results are given for Fc1c(C(F)(F)F)ncc2c1SCC[C@@]21CN2C=C(C(F)(F)F)C=C(OC(F)F)C2=N1 [Example 67, (S)-8-(difluoromethoxy)-8′-fluoro-6,7′-bis(trifluoromethyl)-2′,3′-dihydro-3H-spiro[imidazo[1,2-a]pyridine-2,4′-thiopyrano[3,2-c]pyridine]]?
IC50 [1]: 107 nM; IC50 [2]: 15 nM; IC50 [3]: 57 nM

What does the source list for Fc1cccc2c1OCCC[C@@]21CN2C=C(C(F)(F)F)C=C(OC(F)F)C2=N1 [Example 69, (S)-8′-(difluoromethoxy)-9-fluoro-6′-(trifluoromethyl)-3,4-dihydro-2H,3′H-spiro[benzo[b]oxepine-5,2′-imidazo[1,2-a]pyridine]]?
IC50 [1]: 273 nM; IC50 [2]: 9 nM; IC50 [3]: 44 nM

Which results are given for FC(F)OC1=CC(C(F)(F)F)=CN2C[C@@]3(CCC(F)(F)c4c3ccnc4C(F)F)N=C12 [Example 70, (S)-8-(difluoromethoxy)-1′-(difluoromethyl)-8′,8′-difluoro-6-(trifluoromethyl)-7′,8′-dihydro-3H,6′H-spiro[imidazo[1,2-a]pyridine-2,5′-isoquinoline]]?
IC50 [1]: 1670 nM; IC50 [2]: 20 nM; IC50 [3]: 96 nM

Which IC50 [1] does the source give for N#CC1=CN2C[C@@]3(CCc4cc(I)ccc43)N=C2C(OC(F)F)=C1 [Example 73, (S)-8-(difluoromethoxy)-5′-iodo-2′,3′-dihydro-3H-spiro[imidazo[1,2-a]pyridine-2,1′-indene]-6-carbonitrile] here?
Its IC50 is 542 nM.

And the IC50 [2]?
Its IC50 is ≤ 6 nM.

What about the IC50 [3] of the same molecule?
Its IC50 is 135 nM.

For Fc1c(C(F)(F)F)ccc2c1CC[C@@]21CN2C=C(C(F)(F)F)C=C(OC(F)F)C2=N1 [Example 74, (S)-8-(difluoromethoxy)-4′-fluoro-5′,6-bis(trifluoromethyl)-2′,3′-dihydro-3H-spiro[imidazo[1,2-a]pyridine-2,1′-indene]], which IC50 [1] is on record?
The IC50 was 517 nM.

And the IC50 [2]?
The IC50 was ≤ 10 nM.

And the IC50 [3]?
Its IC50 is 108 nM.

For COc1ccc2c(c1F)CCC[C@@]21CN2C=C(C(F)(F)F)C=C(F)C2=N1 [Example 76, (S)-5′,8-difluoro-6′-methoxy-6-(trifluoromethyl)-3′,4′-dihydro-2′H,3H-spiro[imidazo[1,2-a]pyridine-2,1′-naphthalene]], which IC50 [1] is on record?
The IC50 was 777 nM.

And the IC50 [2]?
The IC50 was 49 nM.

And the IC50 [3]?
The IC50 was 175 nM.

For FC1=CC(C(F)(F)F)=CN2C[C@@]3(CCCc4cc(C(F)(F)F)ccc43)N=C12 [Example 77, (S)-8-fluoro-6,6′-bis(trifluoromethyl)-3′,4′-dihydro-2′H,3H-spiro[imidazo[1,2-a]pyridine-2,1′-naphthalene]], which IC50 [1] is on record?
The IC50 was 600 nM.

And the IC50 [2]?
The IC50 was ≤ 3 nM.

What about the IC50 [3] of the same molecule?
The IC50 was 103 nM.

Which IC50 [1] does the source give for COC1=CC(C(F)(F)F)=CN2C[C@@]3(CCCc4c3ccc(Br)c4F)N=C12 [Example 80, (S)-6′-bromo-5′-fluoro-8-methoxy-6-(trifluoromethyl)-3′,4′-dihydro-2′H,3H-spiro[imidazo[1,2-a]pyridine-2,1′-naphthalene]] here?
Its IC50 is 2040 nM.

And the IC50 [2]?
Its IC50 is 11 nM.

What about the IC50 [3] of the same molecule?
The IC50 was 106 nM.

Which IC50 [1] does the source give for Fc1ccc2c(c1Cl)CCC[C@@]21CN2C=C(C(F)(F)F)C=C(OC(F)F)C2=N1 [Example 82, (5)-5′-chloro-8-(difluoromethoxy)-6′-fluoro-6-(trifluoromethyl)-3′,4′-dihydro-2′H,3H-spiro[imidazo[1,2-a]pyridine-2,1′-naphthalene]] here?
Its IC50 is 155 nM.

What about the IC50 [2] of the same molecule?
The IC50 was ≤ 3 nM.

What about the IC50 [3] of the same molecule?
Its IC50 is 39 nM.

What does the source list for Fc1c(Br)ccc2c1[C@@H](F)[C@H](F)C[C@@]21CN2C=C(C(F)(F)F)C=C(OC(F)F)C2=N1 [Example 83, (2S,3′R,4′R)-6′-bromo-8-(difluoromethoxy)-3′,4′,5′-trifluoro-6-(trifluoromethyl)-3′,4′-dihydro-2′H,3H-spiro[imidazo[1,2-a]pyridine-2,1′-naphthalene]]?
IC50 [1]: 27 nM; IC50 [2]: 9 nM; IC50 [3]: 30 nM

COc1ccc2c(c1F)CCC[C@@]21CN2C=C(C(F)(F)F)C=C(OC(F)F)C2=N1 [Example 84, (S)-8-(difluoromethoxy)-5′-fluoro-6′-methoxy-6-(trifluoromethyl)-3′,4′-dihydro-2′H,3H-spiro[imidazo[1,2-a]pyridine-2,1′-naphthalene]] was tested. Which IC50 [1] did it give?
The IC50 was 184 nM.

And the IC50 [2]?
The IC50 was 3 nM.

What about the IC50 [3] of the same molecule?
The IC50 was 69 nM.

Fc1ccc2c(c1F)CCC[C@@]21CN2C=C(C(F)(F)F)C=C(OC(F)F)C2=N1 [Example 85, (S)-8-(difluoromethoxy)-5′,6′-difluoro-6-(trifluoromethyl)-3′,4′-dihydro-2′H,3H-spiro[imidazo[1,2-a]pyridine-2,1′-naphthalene]] was tested. Which IC50 [1] did it give?
The IC50 was 204 nM.

And the IC50 [2]?
Its IC50 is 4 nM.

And the IC50 [3]?
Its IC50 is 71 nM.
